Assay [1] is described as follows: Cytotoxicity in human HELF cells assessed as reduction in cell viability incubated for 24 hrs by MTT assay. The assay is classed as cell-based. A general note: Tetrazolium assays rely on reduction of a dye to a coloured formazan, in cell work by metabolically active cells.
Assay [2] relates to HepG2. Description: Cytotoxicity in human HepG2 cells assessed as reduction in cell viability incubated for 24 hrs by MTT assay. Format: functional, cell-based. To be noted: HepG2, 24 h.
Assay [3] relates to HeLa. Description: Cytotoxicity in human HeLa cells assessed as reduction in cell viability incubated for 24 hrs by MTT assay. The assay is classed as functional, cell-based.
In assay [4] the test system is BGC-823. As to the kind of experiment: Cytotoxicity in human BGC823 cells assessed as reduction in cell viability incubated for 72 hrs by MTT assay. Format: functional, cell-based. The conditions noted are these: BGC-823, 72 h.
For assay [5], the system named is HT-29. Description: Cytotoxicity in human HT-29 cells assessed as reduction in cell viability incubated for 72 hrs by MTT assay. Format: functional, cell-based. The conditions noted are these: HT-29, 72 h.
Assay [6] relates to HeLa. As to the kind of experiment: Cytotoxicity in human HeLa cells assessed as reduction in cell viability incubated for 72 hrs by MTT assay. The assay is classed as functional, cell-based.
Assay [7] has as its system Bel-7402. As to the kind of experiment: Cytotoxicity in human Bel7402 cells assessed as reduction in cell viability incubated for 72 hrs by MTT assay. Format: functional, cell-based. To be noted: Bel-7402, 72 h.
Assay [8] concerns MDA-MB-231. Description: Cytotoxicity in human MDA-MB-231 cells assessed as reduction in cell viability incubated for 48 hrs by SRB assay. Format: functional. To be noted: MDA-MB-231, 48 h.
For assay [9], the system named is MCF7. As to the kind of experiment: Cytotoxicity in human MCF7 cells assessed as reduction in cell viability incubated for 48 hrs by SRB assay. To be noted: MCF7, 48 h. The assay is classed as functional, cell-based. (The SRB assay estimates cell density from bound dye.)
For assay [10], the system named is DU-145. Description: Cytotoxicity in human DU145 cells assessed as reduction in cell viability incubated for 96 hrs by SRB assay. Format: functional, cell-based. To be noted: DU-145, 96 h.
Assay [11] concerns HCT-8. As to the kind of experiment: Cytotoxicity in human HCT8 cells assessed as reduction in cell viability incubated for 96 hrs by SRB assay. To be noted: HCT-8, 96 h. Format: functional, cell-based.
In assay [12] the test system is MDA-MB-231. As to the kind of experiment: Cytotoxicity in human MDA-MB-231 cells assessed as reduction in cell viability incubated for 96 hrs by SRB assay. The assay is classed as functional, cell-based. To be noted: MDA-MB-231, 96 h.
Assay [13] deals with 4T1. Description: Cytotoxicity in mouse 4T1 cells assessed as reduction in cell viability incubated for 96 hrs by SRB assay. Format: functional, cell-based. To be noted: 4T1, 96 h.
Assay [14] concerns PC-3. Description: Cytotoxicity in human PC3 cells assessed as reduction in cell viability incubated for 96 hrs by SRB assay. Format: functional, cell-based. To be noted: PC-3, 96 h.
The subject of assay [15] is HT-29. As to the kind of experiment: Cytotoxicity in human HT-29 cells assessed as reduction in cell viability incubated for 96 hrs by SRB assay. The assay is classed as functional, cell-based. To be noted: HT-29, 96 h.
Assay [16] concerns HCT-116. As to the kind of experiment: Cytotoxicity in human HCT116 cells assessed as reduction in cell viability incubated for 96 hrs by SRB assay. The assay is classed as functional, cell-based. To be noted: HCT-116, 96 h.
For assay [17], the system named is CT26. Description: Cytotoxicity in mouse CT26 cells assessed as reduction in cell viability incubated for 96 hrs by SRB assay. The conditions noted are these: CT26, 96 h. The assay is classed as functional, cell-based.

Turning to `C[C@H]1[C@H](C)CC[C@]2(C(=O)N3CCNCC3)CC[C@]3(C)C(=CC[C@@H]4[C@@]5(C)CC[C@H](O)C(C)(C)[C@@H]5CC[C@]43C)[C@H]12`, the IC50 (commonly the concentration that gives 50% inhibition) in assay [1] is 12.6 µM; in [2], 5.1 µM; in [3], 14.4 µM.
Regarding `Cc1nc(C)c(COC(=O)[C@]23CCC(C)(C)C[C@H]2C2=CC[C@@H]4[C@@]5(C)CC[C@H](O)C(C)(C)[C@@H]5CC[C@@]4(C)[C@]2(C)CC3)nc1C`, the half-maximal inhibitory concentration (IC50) in [4] is above 30 µM; in assay [5], 29.8 µM; in assay [6], 28.7 µM; in [7], 6.36 µM.
As to `C[C@H]1[C@H](C)CC[C@]2(C(=O)NCCCCCCCCN)CC[C@]3(C)C(=CC[C@@H]4[C@@]5(C)CC[C@H](O)C(C)(C)[C@@H]5CC[C@]43C)[C@H]12`, the IC50 was 39.4 µM in [1], 26.7 µM in assay [2] and 16.9 µM in [3].
As to `C=C(C)[C@@H]1CC[C@]2(C(=O)OCc3cnn(CCCOC(=O)[C@]45CC[C@@H](C)[C@H](C)[C@H]4C4=CC[C@@H]6[C@@]7(C)CC[C@H](O)C(C)(C)[C@@H]7CC[C@@]6(C)[C@]4(C)CC5)c3)CC[C@]3(C)[C@H](CC[C@@H]4[C@@]5(C)CC[C@H](O)C(C)(C)[C@@H]5CC[C@]43C)[C@@H]12`, the values for the GI50 in assay [8] and in assay [9] were 1.4 µM and 14.4 µM, respectively.
For the molecule `C[C@H]1[C@H](C)CC[C@]2(C(=O)OCCCn3cc(COC(=O)[C@]45CC[C@@H](C)[C@H](C)[C@@H]4C4=CC[C@@H]6[C@@]7(C)CC[C@H](O)C(C)(C)[C@@H]7CC[C@]6(C)[C@]4(C)CC5)cn3)CC[C@]3(C)C(=CC[C@@H]4[C@@]5(C)CC[C@H](O)C(C)(C)[C@@H]5CC[C@]43C)[C@H]12`, the GI50 – broadly, the concentration that inhibits growth by half – in assay [8] amounted to 3.8 µM; in [9], 12.7 µM.
Regarding `CC(=O)O[C@H]1CC[C@]2(C)[C@H]3CC=C4[C@@H]5[C@@H](C)[C@H](C)CC[C@]5(C(=O)N5CCNCC5C)CC[C@@]4(C)[C@]3(C)CC[C@H]2C1(C)C` (stereo partly specified), the results for the IC50 in assay [1], in [2] and in [3] were 14.8 µM, 5.2 µM and 6.3 µM, respectively.
With `C[C@H]1[C@H](C)CC[C@]2(C(=O)OCCCn3cc(COC(=O)[C@]45CC[C@@H](C)[C@H](C)[C@@H]4C4=CC[C@@H]6[C@@]7(C)CC[C@H](O)[C@](C)(CO)[C@@H]7CC[C@]6(C)[C@]4(C)CC5)cn3)CC[C@]3(C)C(=CC[C@@H]4[C@@]5(C)CC[C@H](O)C(C)(C)[C@@H]5CC[C@]43C)[C@H]12`, the GI50 was 4.5 µM in assay [8] and 12.1 µM in assay [9].
`C=C(C)[C@@H]1CC[C@]2(C(=O)O)CC[C@]3(C)[C@H](CC[C@@H]4[C@@]5(C)CC[C@H](O)C(C)(C)[C@@H]5CC[C@]43C)[C@@H]12` [BETULINIC ACID]: the GI50 was determined as 22.9 µM in [8] and 11.3 µM in assay [9].
On to `CC(=O)O[C@H]1CC[C@]2(C)[C@H]3CC=C4[C@@H]5[C@@H](C)[C@H](C)CC[C@]5(C(=O)N5CCNCC5)CC[C@@]4(C)[C@]3(C)CC[C@H]2C1(C)C`, for which the IC50 stood at 9.1 µM in assay [1], 4.8 µM in [2] and 7 µM in [3].
Take `COC(=O)[C@@]1(C)CC[C@]2(C)CC[C@]3(C)C(=CC(=O)[C@@H]4[C@@]5(C)Cc6cn(OC(C)=O)nc6C(C)(C)[C@@H]5CC[C@]43C)[C@H]2C1`: the IC50 came to 36.7 µM in assay [10]; 29.2 µM in [11]; 32.3 µM in assay [12]; 20.1 µM in assay [13]; 25.4 µM in assay [14]; 31 µM in [15]. In addition, the IC50 in assay [16] was 14.1 µM; in [17], 33 µM.
For the molecule `COC(=O)[C@@]1(C)CC[C@]2(C)CC[C@]3(C)C(=CC(=O)[C@@H]4[C@@]5(C)Cc6cn(C(=O)C7CCCNC7)nc6C(C)(C)[C@@H]5CC[C@]43C)[C@H]2C1` (stereo partly specified), the 50% inhibitory concentration (IC50) in assay [10] was determined as 21.9 µM; in assay [11], 23.8 µM; in assay [12], 24 µM; in assay [13], 9.68 µM; in assay [14], 23.1 µM; in assay [15], 21.8 µM. For the same molecule, the IC50 in assay [16] is 22 µM; in assay [17] it was 23.7 µM.
Regarding `COC(=O)[C@@]1(C)CC[C@]2(C)CC[C@]3(C)C(=CC(=O)[C@@H]4[C@@]5(C)Cc6cn(C(=O)CCCC7CCNCC7)nc6C(C)(C)[C@@H]5CC[C@]43C)[C@H]2C1`, the IC50 in assay [10] is 7.54 µM; in assay [11], 11.7 µM; in assay [12], 9.76 µM; in assay [13], 6.09 µM; in assay [14], 5.19 µM; in [15] it was 8.76 µM. The results for the half-inhibitory concentration (IC50) in [16] and in assay [17] were 6.99 µM and 8.08 µM, respectively.
As to `COC(=O)[C@@]1(C)CC[C@]2(C)CC[C@]3(C)C(=CC(=O)[C@@H]4[C@@]5(C)Cc6cn(C(=O)CC7CCNCC7)nc6C(C)(C)[C@@H]5CC[C@]43C)[C@H]2C1`, the IC50 was determined as 13.3 µM in assay [10]; 8.98 µM in [11]; 10.1 µM in assay [12]; 5.8 µM in assay [13]; 11.7 µM in [14]; 12.1 µM in assay [15]. In addition, the results for the IC50 in [16] and in assay [17] were 12.1 µM and 9.87 µM, respectively.
Regarding `CC1(C)c2n[nH]cc2C[C@]2(C)[C@H]3C(=O)C=C4[C@H]5C[C@@](C)(C(=O)OCc6ccccc6)CC[C@]5(C)CC[C@@]4(C)[C@]3(C)CC[C@@H]12`, the IC50 in assay [10] turned out to be 19 µM; in assay [11], 13.3 µM; in assay [12], 18.1 µM; in assay [13], 6.32 µM; in assay [14], 12.3 µM; in assay [15], 15.2 µM. For the same molecule, the IC50 in assay [16] amounted to 7.49 µM; in [17], 19.8 µM.
Consider `COC(=O)[C@@]1(C)CC[C@]2(C)CC[C@]3(C)C(=CC(=O)[C@@H]4[C@@]5(C)Cc6cn(S(C)(=O)=O)nc6C(C)(C)[C@@H]5CC[C@]43C)[C@H]2C1`, for which the half-inhibitory concentration (IC50) is above 50 µM in assay [10]; 24.5 µM in assay [11]; 28.6 µM in [12]; 12.5 µM in assay [13]; 18.9 µM in assay [14]; 18.5 µM in assay [15]. The results for the concentration for half-maximal inhibition (IC50) in assay [16] and in assay [17] were 8.7 µM and 15.2 µM, respectively.
For `CC(=O)O[C@H]1CC[C@]2(C)[C@H]3CC=C4[C@@H]5[C@@H](C)[C@H](C)CC[C@]5(C(=O)NCCCCCCCCN)CC[C@@]4(C)[C@]3(C)CC[C@H]2C1(C)C`, the half-maximal inhibitory concentration (IC50) in assay [1] came to 36.1 µM; in [2], 17.3 µM; in [3], 8.6 µM.
With `COC(=O)[C@@]1(C)CC[C@]2(C)CC[C@]3(C)C(=CC(=O)[C@@H]4[C@@]5(C)Cc6cn(C(=O)C7CCNCC7)nc6C(C)(C)[C@@H]5CC[C@]43C)[C@H]2C1`, the IC50 was 20.8 µM in assay [10]; 22.3 µM in [11]; 19.2 µM in [12]; 5.34 µM in assay [13]; 22.4 µM in assay [14]; 25.2 µM in [15]. The results for the IC50 in assay [16] and in assay [17] were 23.2 µM and 21.4 µM, respectively.
Consider `COC(=O)[C@@]1(C)CC[C@]2(C)CC[C@]3(C)C(=CC(=O)[C@@H]4[C@@]5(C)Cc6c(n[nH]c6C(F)(F)F)C(C)(C)[C@@H]5CC[C@]43C)[C@H]2C1`, for which the IC50 in assay [10] turned out to be 33.6 µM; in assay [11] it was 20 µM; in assay [12], 27.4 µM; in assay [13] it was 15.7 µM; in assay [14], 19.8 µM; in assay [15], 27.6 µM. Besides, the IC50 in assay [16] stood at 11.9 µM; in assay [17], 22 µM.

(Values after ChEMBL document CHEMBL4270495, “Oleanane-, ursane-, and quinone methide friedelane-type triterpenoid derivatives: Recent advances in cancer treatment” (Eur J Med Chem, 2017).)
